Measurements: patent US7135501B2, “Clusianon isomers and use thereof” (priority 2001, dated 2006)

Experiments:
[1] = system: tumor cell lines, resistant subclones and non-tumor cell lines; assay: SRB assay, comparison across the cell line panel; format: cell-based
Procedure: Six unambiguously characterized tumor cell lines of human origin (native cell lines and those converted into resistant subclones) and two non-tumor cell lines are used for further investigations (table 2).
The sensitivity of the cell lines to the substance (I) is determined in a so-called sulforhodamine B (SRB) assay. This is a robust and highly reproducible standard method which is also established for example at the NCI (National Cancer Institute, USA) (Skehan et al. 1990).
The concentration of substance (I) which inhibits cell growth by 50% (IC50, determined from semilogarithmic dose versus effect plots) are indicated.

[2] = molecular target: T1, topoisomerase I (Homo sapiens, UniProt P11387); assay: Topo I unwinding assay; format: biochemical; conditions: for concentration required for topoisomerase I inhibition as multiple of the IC50 of tumor cell growth: in vitro
T1 construct: 160 ng of cell nucleus extract with the topoisomerase I present therein; endogenous in cells
T1 sequence (P11387 1-765): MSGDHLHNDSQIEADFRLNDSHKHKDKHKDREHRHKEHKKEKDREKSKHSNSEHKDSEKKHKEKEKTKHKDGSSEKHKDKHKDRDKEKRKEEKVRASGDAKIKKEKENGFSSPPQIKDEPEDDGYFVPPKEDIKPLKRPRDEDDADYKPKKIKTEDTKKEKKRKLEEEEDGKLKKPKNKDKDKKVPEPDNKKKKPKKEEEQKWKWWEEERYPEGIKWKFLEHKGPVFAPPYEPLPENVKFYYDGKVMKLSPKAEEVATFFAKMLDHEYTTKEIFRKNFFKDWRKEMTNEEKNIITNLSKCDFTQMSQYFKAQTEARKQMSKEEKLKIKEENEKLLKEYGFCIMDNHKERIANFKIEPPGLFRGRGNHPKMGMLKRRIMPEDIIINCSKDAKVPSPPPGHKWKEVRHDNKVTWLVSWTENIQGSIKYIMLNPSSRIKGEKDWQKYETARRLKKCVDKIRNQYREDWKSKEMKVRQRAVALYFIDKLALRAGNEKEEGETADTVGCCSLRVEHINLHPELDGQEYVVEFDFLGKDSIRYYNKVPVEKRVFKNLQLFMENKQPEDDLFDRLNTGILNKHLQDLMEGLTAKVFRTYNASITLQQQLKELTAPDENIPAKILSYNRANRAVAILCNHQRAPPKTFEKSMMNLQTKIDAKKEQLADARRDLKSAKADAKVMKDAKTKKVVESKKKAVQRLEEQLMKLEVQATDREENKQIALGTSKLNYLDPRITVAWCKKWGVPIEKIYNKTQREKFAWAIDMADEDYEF
Source text: The assay is based on an ATP-independent unwinding of twisted pBR322 plasmid DNA dimers by topoisomerase I. The two different topological forms of the plasmid DNA, the twisted form and unwound, relaxed form, are separated in this investigation by means of an agarose gel. The enzyme topoisomerase I is obtained for this purpose from cell nucleus extracts of the tumor cell lines.
Cell nucleus extracts are obtained by the method of Sullivan with the modifications of Danks et al.

[3] = system: HCT8 WT bowel cancer cells; assay: Cell cycle analysis (BrdU/PI flow cytometry); format: cell-based, human; conditions: IC50 concentration, 24 hours
Procedure: Flow cytometric investigations by an adapted method of Tsugita M. et al. are used for the analysis.
Exponentially growing HCT8 WT bowel cancer cells are treated with substance (I) with the determined IC50 concentration for 24 hours, and then the cells are incubated with BrdU. The cells fixed with methanol are subjected to a treatment with a detergent (Triton X-100/HCl) in order to denature the DNA strands. After incubation with the fluorescence-labeled antibody (anti-BrdU mAb, FITC-labeled), the second fluorescent dye (PI, propidium iodide) is added.
The DNA content (propidium iodide fluorescence) and the amount of BrdU taken up (FITC fluorescence) are determined using a Coulter flow cytometer (Coulter EPICS XL). Exemplary results are depicted in FIGS. 3a and 3b.
FIGS. 3a and 3b show BrdU and PI uptakes into the DNA of HCT8 WT cells, untreated (control, […]) and treated with substance (I) (IC50, 24 hours, […]). The depicted results are representative of n=3 independent experiments.

[4] = system: H460 WT cells; assay: DNA double-strand breaks in [14C]d-thymidine-labeled cells, H460 WT; format: cell-based, human; conditions: up to 10 times the IC50 concentration, 6 hours
Procedure: (§1) DNA isolated after treatment of the cells for various times with substance (I) is for this purpose analyzed by gel electrophoresis.
(§2) Determination of the DNA double-strand breaks is performed on ^14C-labeled DNA. For this purpose, [^14C]d-thymidine-labeled cells are treated with various concentrations of substance (I). The DNA is isolated by an adapted method of Chia Chiao et al.
(§3) The DNA fractionated by gel electrophoresis is subsequently stained with ethidium bromide.
(§4) On a transilluminator (302 nm), the intact DNA which has not migrated in the electric field is separated from the fragmented DNA, which has thus migrated into the gel, by extraction. The isolated gel and DNA fragments are liquefied at +80° C. in the presence of hydrochloric acid. After addition of a scintillator it is possible to determine the radioactivity using a liquid scintillation meter (TPI-CARB 2100RT). The measured radioactivity is indicated in […] (cpm).
The results represent averages and their standard deviation from n=3 independent experiments.

[5] = system: HT29 WT; assay: DNA double-strand breaks, HT29 WT; format: cell-based, human
Procedure: as §1, §2, §3, §4

[6] = molecular target: DNA polymerase (Thermus aquaticus, UniProt P19821); assay: Preliminary experiment with the TSR8 template; format: biochemical; conditions: maximum concentration 50 μg/ml
DNA polymerase, sequence (P19821 whole entry): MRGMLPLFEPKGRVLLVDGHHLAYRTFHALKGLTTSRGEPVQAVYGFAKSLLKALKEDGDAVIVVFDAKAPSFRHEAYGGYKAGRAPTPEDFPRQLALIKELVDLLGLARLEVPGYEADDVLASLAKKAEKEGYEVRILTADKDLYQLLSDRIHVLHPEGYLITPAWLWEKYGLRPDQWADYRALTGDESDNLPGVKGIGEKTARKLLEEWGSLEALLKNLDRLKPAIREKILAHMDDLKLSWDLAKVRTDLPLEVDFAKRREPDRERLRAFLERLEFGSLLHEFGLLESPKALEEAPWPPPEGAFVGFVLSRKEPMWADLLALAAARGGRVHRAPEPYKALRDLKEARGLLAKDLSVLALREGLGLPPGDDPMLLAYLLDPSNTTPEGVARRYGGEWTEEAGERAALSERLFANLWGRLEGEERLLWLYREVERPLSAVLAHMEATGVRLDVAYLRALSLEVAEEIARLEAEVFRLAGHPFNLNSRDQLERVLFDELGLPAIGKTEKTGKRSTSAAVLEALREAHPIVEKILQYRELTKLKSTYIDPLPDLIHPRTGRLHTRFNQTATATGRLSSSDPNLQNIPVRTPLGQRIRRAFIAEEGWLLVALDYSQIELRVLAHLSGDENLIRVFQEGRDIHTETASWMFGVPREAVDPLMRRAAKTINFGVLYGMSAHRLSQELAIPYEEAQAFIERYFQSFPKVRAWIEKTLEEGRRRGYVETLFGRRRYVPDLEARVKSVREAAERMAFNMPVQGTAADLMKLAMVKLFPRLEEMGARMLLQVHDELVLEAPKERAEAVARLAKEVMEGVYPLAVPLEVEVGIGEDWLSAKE
Procedure: In order to ensure the effect of substance (I) on telomerase, an effect of substance (I) on DNA polymerase must be ruled out. In a preliminary experiment with TSR8 as internal control, the effect of substance (I) at various concentration levels was ruled out.
Amplification of the TSR8 template depends only on DNA polymerase. Every inhibitor of this enzyme can be detected using the substrate.
The experiment is carried out in triplicates.

[7] = molecular target: T2, human telomerase (Homo sapiens, UniProt O14746); assay: Telomeric Repeat Amplification Assay (TRAP) ELISA; format: biochemical; conditions: at 50 μg/ml; telomerase from HCT8 WT colon carcinoma cells
T2 construct: human telomerase obtained from cells of a colon carcinoma (HCT8 WT); endogenous in cells; host or cells: HCT8 WT colon carcinoma cells
T2 sequence (O14746 whole entry): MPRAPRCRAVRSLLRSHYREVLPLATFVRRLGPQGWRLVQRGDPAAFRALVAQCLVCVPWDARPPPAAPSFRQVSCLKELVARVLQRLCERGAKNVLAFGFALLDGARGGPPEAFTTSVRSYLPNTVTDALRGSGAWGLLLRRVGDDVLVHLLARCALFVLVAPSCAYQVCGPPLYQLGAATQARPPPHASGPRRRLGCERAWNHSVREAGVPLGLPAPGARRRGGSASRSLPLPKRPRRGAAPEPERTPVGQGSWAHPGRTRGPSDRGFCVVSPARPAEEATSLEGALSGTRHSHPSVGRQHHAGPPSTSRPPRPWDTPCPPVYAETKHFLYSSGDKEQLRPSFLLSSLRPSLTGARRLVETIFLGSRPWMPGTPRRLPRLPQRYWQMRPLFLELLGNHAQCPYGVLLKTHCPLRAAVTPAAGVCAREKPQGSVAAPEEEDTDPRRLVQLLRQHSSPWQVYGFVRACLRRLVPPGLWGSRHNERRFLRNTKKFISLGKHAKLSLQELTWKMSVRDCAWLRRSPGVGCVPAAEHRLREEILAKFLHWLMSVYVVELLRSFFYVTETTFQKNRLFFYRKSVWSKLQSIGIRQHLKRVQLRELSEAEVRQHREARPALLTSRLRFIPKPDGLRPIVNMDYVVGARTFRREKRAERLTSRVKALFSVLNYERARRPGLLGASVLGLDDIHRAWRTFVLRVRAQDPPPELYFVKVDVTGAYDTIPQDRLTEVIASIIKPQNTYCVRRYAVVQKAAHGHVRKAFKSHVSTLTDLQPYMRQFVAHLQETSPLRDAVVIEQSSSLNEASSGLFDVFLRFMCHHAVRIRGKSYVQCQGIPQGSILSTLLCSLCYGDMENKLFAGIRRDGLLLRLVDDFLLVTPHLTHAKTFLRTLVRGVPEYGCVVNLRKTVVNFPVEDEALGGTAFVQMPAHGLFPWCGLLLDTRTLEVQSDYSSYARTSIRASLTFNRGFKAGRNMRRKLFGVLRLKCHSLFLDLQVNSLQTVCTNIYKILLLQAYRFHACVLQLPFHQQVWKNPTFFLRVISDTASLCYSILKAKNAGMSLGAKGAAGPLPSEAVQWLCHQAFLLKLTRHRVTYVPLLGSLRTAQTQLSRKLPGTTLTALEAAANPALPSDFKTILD
Procedure: The effect of substance (I) on human telomerase is determined by carrying out the so-called Telomeric Repeat Amplification Assay (TRAP) ELISA, based on the method of N. W. Kim et al.
This method is based on use of the polymerase chain reaction (PCR). This entails, in a first step, a number of (GGTTAG) motifs being attached by means of the telomerase activity to the 3′ end of a biotin-labeled oligonucleotide (TS=telomerase substrate). In a second step, the products extended in this way are amplified by the PCR technique using TS and RP (R=reverse) primers. In this way, a “ladder” of products in increments of 6 bases (initial size=50 nucleo-tides) is generated. During the amplification, DNP-labeled dCTP is incorporated into the PCR products. Detection and quantification of the synthesized telomerase products using a sandwich ELISA method are a measure of the telomerase enzymatic activity.
The telomerase products carry the biotin-labeled TS primers and bind to the surface of microtiter plates previously coated with streptavidin. An anti-DIG antibody conjugated to POD binds to the […] nucleotides incorporated during the amplification. After addition of the substrate TMB, the telomerase activity is visualized by […] via the onset of the color reaction by the enzyme POD. In this case, the measured absorption is directly proportional to the telomerase activity. […]

[8] = system: ERK1/2 protein; assay: Western blot analysis of ERK1/2 phosphorylation; format: cell-based, human; conditions: HCT8 WT, detectable even at IC50 dose
Source text: Phosphorylation of certain signal transduction pathways plays an essential role in the regulation of cell growth and gene expression. The protein ERK1/2 (MAP kinase) belongs to the MAP kinase signal transduction pathway.
Treatment of human colon carcinoma cells (HCT8 WT) with substance (I) leads to phosphorylation of this protein, which is detected in a Western blot analysis (FIG. 8).

[9] = system: HCT8 WT cells; assay: Coincubation cytotoxicity experiment with a specific ERK1/2 inhibitor; format: cell-based, human; conditions: 24 hours, different dosage ratios
Procedure: HCT8 WT cells were coincubated.

SMILES | cytotoxicity for the non-tumor cell lines compared with tumor cell lines ([1]; fibroblasts of the 3T3 and MCR 5 lines) | cross-resistance to the indicated cytostatics ([1]; resistant subclones versus native cell lines) | inhibition at 100 µg/mL ([2]; at 100 μg/ml, 160 ng cell nucleus extract, pBR322 plasmid DNA) | concentration required for topoisomerase I inhibition as multiple of the IC50 of tumor cell growth [2] | effect on cell cycle (BrdU uptake) [3] | induction of DNA double-strand breaks [4] | induction of DNA double-strand breaks [5] | inhibition of Tag polymerase (TSR8 template amplification) [6] | inhibition of human telomerase [7] | phosphorylation of the ERK1/2 protein [8] | cytotoxicity on coincubation with a specific ERK1/2 inhibitor (MAP kinase inhibitor) [9]
CC(C)=CCC1=C(O)[C@]2(C(=O)c3ccccc3)C(=O)[C@@](CC=C(C)C)(CC(CC=C(C)C)C2(C)C)C1=O (stereo partly drawn) [Substance (I), 1-Benzoyl-8,8-dimethyl-2-hydroxy-3,5,7-tris-(3-methyl-2-butenyl)bicyclo[3.3.1]non-2-ene-4,9-dione] | considerably less | no cross-resistance | 100% | 20 times | inhibition of the synthesis phase | significant amounts of double-strand breaks | substantial amounts of double-strand breaks | does not lead to a significant inhibition | Complete inhibition | dose-dependent phosphorylation | pronounced synergism
CC[C@@]1(O)C(=O)OCc2c1cc1n(c2=O)Cc2cc3c(CN(C)C)c(O)ccc3nc2-1 [topotecan, reference compound] | – | – | – | 1000 times | – | – | – | – | – | – | –
